# Patent US12304898B2, “Quinolyl-containing compound and pharmaceutical composition, and use thereof” (PrimeGene (Beijing) Co., Ltd., priority 2019, dated 2025)
# Columns and labels:
# VEGFR2 (KDR) = VEGFR2 (KDR) (Homo sapiens (Human), UniProt P35968); assay: VEGFR2 (KDR) mobility shift assay; assay type: biochemical; details: VEGFR2 0.5 nM, ATP 95 μM, read-out: IC50, inhibitory effect on kinase VEGFR2
# Method: Detect compounds on VEGFR2 (KDR) by mobility shift assay. The initial test concentration of a compound was 1000 nM, 3 times dilution, 10 concentrations, and detection in duplicate. Nintedanib (Selleckchem, Cat. S1010) was used as the positive control compound. The operation method was briefly described as follows: kinase VEGFR2 (Carna, Cat. 08-191) at the final concentration of 0.5 nM and the test compound were mixed in the Optiplate-384F well plate and incubated for 10 minutes at room temperature. Then, ATP at a final concentration of 95 μM and 3 μM Kinase substrate 22 (Gill Biochemical (glbiochem), Cat. 112393) were added. After mixing, react at room temperature for 30 minutes. Add stop detection solution to terminate the reaction and read the conversion rate with Caliper EZ ReaderlI.
# Wherein, Conversion %_sample refers to the conversion rate reading of the sample; Conversion %_min: the average value of the negative control wells, which represents the conversion rate readings of the wells without enzyme activity; Conversion %_max: the average value of the positive control wells, represents the conversion rate readings of the wells without compound inhibition.
# Fitting the dose-response curve: Take the log of the concentration as the X-axis, and the percentage of inhibition rate as the Y-axis. The dose response curve was fitted by the analysis software GraphPad Prism 5 with log(inhibitor) vs. response—Variable slope to obtain the inhibitory activity (IC50) of each compound.
# HDAC6 = HDAC6 (Homo sapiens (Human), UniProt Q9UBN7); assay: HDAC6 fluorescence analysis, inhibition of HDAC6 activity; assay type: biochemical; details: HDAC6 0.3 nM solution, substrate 15 μM, fluorescence readout; read-out: IC50, inhibitory effect on HDAC6
# HDAC6, sequence (Q9UBN7 whole entry): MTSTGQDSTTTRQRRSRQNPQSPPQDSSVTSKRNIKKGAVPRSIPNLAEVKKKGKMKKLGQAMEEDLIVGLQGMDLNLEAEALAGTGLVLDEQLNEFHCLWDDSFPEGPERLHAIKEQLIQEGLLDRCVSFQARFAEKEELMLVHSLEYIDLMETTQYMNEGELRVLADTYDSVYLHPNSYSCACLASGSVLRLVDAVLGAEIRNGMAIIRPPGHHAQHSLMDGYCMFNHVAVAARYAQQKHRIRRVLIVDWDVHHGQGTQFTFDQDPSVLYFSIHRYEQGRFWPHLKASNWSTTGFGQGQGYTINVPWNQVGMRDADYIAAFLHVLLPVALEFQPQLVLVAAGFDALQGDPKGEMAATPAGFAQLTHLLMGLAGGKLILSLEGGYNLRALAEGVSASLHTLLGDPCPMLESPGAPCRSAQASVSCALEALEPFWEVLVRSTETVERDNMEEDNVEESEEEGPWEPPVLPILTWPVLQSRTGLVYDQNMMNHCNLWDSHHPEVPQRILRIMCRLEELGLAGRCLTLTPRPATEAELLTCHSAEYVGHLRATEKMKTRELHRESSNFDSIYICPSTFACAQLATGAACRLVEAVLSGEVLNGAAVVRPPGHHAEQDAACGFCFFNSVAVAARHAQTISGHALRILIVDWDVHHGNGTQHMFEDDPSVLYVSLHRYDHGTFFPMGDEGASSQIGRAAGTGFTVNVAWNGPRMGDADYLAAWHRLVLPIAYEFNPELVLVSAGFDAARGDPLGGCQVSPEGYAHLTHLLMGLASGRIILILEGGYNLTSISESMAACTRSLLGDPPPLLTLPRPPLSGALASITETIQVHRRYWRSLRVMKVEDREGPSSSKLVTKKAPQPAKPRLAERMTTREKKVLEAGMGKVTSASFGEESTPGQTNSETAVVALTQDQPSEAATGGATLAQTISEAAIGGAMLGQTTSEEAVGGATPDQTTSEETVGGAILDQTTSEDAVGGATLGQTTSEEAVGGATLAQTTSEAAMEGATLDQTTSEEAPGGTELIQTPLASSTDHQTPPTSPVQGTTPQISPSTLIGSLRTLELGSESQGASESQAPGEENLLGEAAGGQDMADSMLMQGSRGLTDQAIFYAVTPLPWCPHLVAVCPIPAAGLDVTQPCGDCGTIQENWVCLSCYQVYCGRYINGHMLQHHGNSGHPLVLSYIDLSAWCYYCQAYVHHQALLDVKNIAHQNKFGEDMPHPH
# Method: HDAC6 fluorescence analysis method was used to detect the inhibitory effect of the compounds on the activity of HDAC6. The specific operation is as follows:
# Prepare a 10 mM stock solution of a compound with DMSO. Take 10 μl of stock solution and dilute with 90 μl DMSO to become a 1 mM working solution. […] Add 3 μl of each concentration to 197 μl reaction buffer (20 mM Hepes pH 8.0, 137 mM NaCl, 2.7 mM KCl, 1 mM MgCl2, 0.05% BSA, 0.5 mM TCEP), mix well and add 10 μl to a 384-well plate. In the final reaction system, the concentrations of the compound were 10 μM to 0.51 nM. Duplicate, and add 10 μl 3XHDAC solution (BPS, Cat. 50006, 0.3 nM) to each well, followed by incubating at 23° C. for 20 minutes. Then, add 3× substrate solution (Anaspec, Cat. 61855, 15 μM), centrifuge to mix, and incubate at 23° C. for 90 minutes. Add 30 μl trypsin/SAHA mixture (20 mM Hepes pH 8.0, 100 mM NaCl, 10 mM SAHA, 0.01 mg/ml trypsin), incubate at 23° C. for 60 minutes to terminate the reaction. Finally, read fluorescence data by Envision (390 nm excitation, 460 nm emission). […] Finally, analyze the data by XLfit5 software and calculate the IC50 value of the compound. Vorinostat (SAHA) was a positive reference compound.
# VEGFR2 (KDR), sequence (P35968 790-1356): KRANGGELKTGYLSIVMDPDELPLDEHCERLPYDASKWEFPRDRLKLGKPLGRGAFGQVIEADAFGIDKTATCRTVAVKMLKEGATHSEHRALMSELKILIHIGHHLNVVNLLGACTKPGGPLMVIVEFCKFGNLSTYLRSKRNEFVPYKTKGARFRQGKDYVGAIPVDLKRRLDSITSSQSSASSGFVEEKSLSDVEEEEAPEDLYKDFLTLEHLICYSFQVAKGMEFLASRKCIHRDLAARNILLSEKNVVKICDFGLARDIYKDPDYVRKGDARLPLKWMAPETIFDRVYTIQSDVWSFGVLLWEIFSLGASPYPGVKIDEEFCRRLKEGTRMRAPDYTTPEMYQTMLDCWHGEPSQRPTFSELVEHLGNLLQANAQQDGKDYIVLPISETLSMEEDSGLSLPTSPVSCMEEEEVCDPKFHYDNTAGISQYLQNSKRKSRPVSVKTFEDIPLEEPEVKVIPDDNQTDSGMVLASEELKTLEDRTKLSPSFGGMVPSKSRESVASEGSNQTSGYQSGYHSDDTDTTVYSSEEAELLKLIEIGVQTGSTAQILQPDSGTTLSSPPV
Structure (SMILES),IC50 (VEGFR2 (KDR)) [nM],IC50 (HDAC6) [nM]
COc1cc2c(Oc3ccc(NC(=O)C4(C(=O)Nc5ccc(F)cc5)CC4)cc3F)ccnc2cc1OCCCCNC(=O)CS [Example 62],17,16.3
COc1cc2c(Oc3ccc(NC(=O)C4(C(=O)Nc5ccc(F)cc5)CC4)cc3F)ccnc2cc1OCCCCCCNC(=O)CS [Example 64],51,28.8
"CC(=O)SCC(=O)NCCCCCOc1cc2nccc(Oc3ccc(NC(=O)NC4CC4)c(Cl)c3)c2cc1C(N)=O [Example 69, S-(2-((5-((6-carbamoyl-4-(3-chloro-4-(3-cyclopropylurea)phenoxy)quinolin-7-yl)oxy)pentyl)amino)-2-oxo-ethyl)thioacetate]",0.96,8.94
"CC(=O)SCC(=O)NCCCCCOc1cc2nccc(Oc3ccc(NC(=O)C4(C(=O)Nc5ccc(F)cc5)CC4)cc3F)c2cc1C(N)=O [Example 71, S-(2-((5-((6-carbamoyl-4-(2-fluoro-4-(1-((4-fluorophenyl)carbamoyl)cyclopropane-1-methylamido)phenoxy)quinolin-7-yl)oxy)pentyl)amino)-2-oxo-ethyl)thioacetate]",4.6,27
